Measurements published in patent publication US12077503B2, “Substituted cyclic amides and their use as herbicides” (FMC CORPORATION, priority 2015, dated 2024).
Where two headings read alike, the source gives them in different places.

How the values were obtained:
Format in all cases: in vivo
[1] = tested on: ragweed (common ragweed, Ambrosia elatior); experiment: Test A postemergence; conditions: Ambrosia artemisiifolia, post-emergence, 240 h, postemergence, read-out: Ragweed plant response rating; for pest or weed control at 125 g/ha: 125 g ai/ha, visual injury on 0 to 100 scale (0 no effect, 100 complete control), approx. 10 d
Summary of the method: (§1)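 Seeds sprayed preemergence with a directed soil spray, or plants at 2 to 10 cm height and one- to two-leaf stage sprayed postemergence, with test chemicals in a non-phytotoxic solvent mixture containing surfactant, in loam soil–sand blend. Injury rated visually against untreated controls after about 10 d in greenhouse, 0 (no effect) to 100 (complete control).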

[2] = tested on: Galium (catchweed bedstraw, Galium aparine); experiment: Test A postemergence; conditions: Galium, post-emergence, 240 h, postemergence; for pest or weed control at 125 g/ha: 125 g ai/ha, visual injury on 0 to 100 scale (0 no effect, 100 complete control); for pest or weed control at 500 g/ha: 500 g ai/ha
Summary of the method: as §1

[3] = tested on: pigweed (Amaranthus retroflexus); experiment: Test A postemergence; conditions: Amaranthus retroflexus, post-emergence, 240 h, postemergence, read-out: Pigweed plant response rating; for pest or weed control at 125 g/ha: 125 g ai/ha, visual injury on 0 to 100 scale (0 no effect, 100 complete control), approx. 10 d
Summary of the method: as §1

[4] = tested on: ryegrass, Italian (Italian ryegrass, Lolium multiflorum); experiment: Test A postemergence; conditions: Lolium multiflorum, post-emergence, 240 h, postemergence, read-out: Ryegrass, Italian plant response rating; for pest or weed control at 125 g/ha: 125 g ai/ha, visual injury on 0 to 100 scale (0 no effect, 100 complete control), approx. 10 d
Summary of the method: as §1

corn (Zea mays) = experiment: Test A postemergence; conditions: Zea mays, post-emergence, 240 h, postemergence; for plant injury at 125 g/ha: 125 g ai/ha, visual injury on 0 to 100 scale (0 no effect, 100 complete control)
Summary of the method: as §1

[5] = tested on: giant foxtail (Setaria faberii); experiment: Test A postemergence; conditions: Setaria faberi, post-emergence, 240 h, postemergence; for pest or weed control at 125 g/ha: 125 g ai/ha, visual injury on 0 to 100 scale (0 no effect, 100 complete control); for pest or weed control at 500 g/ha: 500 g ai/ha
Summary of the method: as §1

[6] = tested on: blackgrass (Alopecurus myosuroides); experiment: Test A postemergence; conditions: Alopecurus myosuroides, post-emergence, 240 h, postemergence; for pest or weed control at 125 g/ha: 125 g ai/ha, visual injury on 0 to 100 scale (0 no effect, 100 complete control); for pest or weed control at 500 g/ha: 500 g ai/ha
Summary of the method: as §1

[7] = tested on: wheat (Triticum aestivum); experiment: Test A postemergence; conditions: Triticum aestivum, post-emergence, 240 h, postemergence, read-out: Wheat plant response rating; for plant injury at 125 g/ha: 125 g ai/ha, visual injury on 0 to 100 scale (0 no effect, 100 complete control), approx. 10 d
Summary of the method: as §1

Kochia (Kochia scoparia) [8] = experiment: Test A postemergence; conditions: Bassia scoparia, post-emergence, 240 h, postemergence; for pest or weed control at 125 g/ha: 125 g ai/ha, visual injury on 0 to 100 scale (0 no effect, 100 complete control); for pest or weed control at 500 g/ha: 500 g ai/ha
Summary of the method: as §1

[9] = tested on: barnyardgrass (Echinochloa crus-galli); experiment: Test A postemergence; conditions: Echinochloa crus-galli, post-emergence, 240 h, postemergence; for pest or weed control at 125 g/ha: 125 g ai/ha, visual injury on 0 to 100 scale (0 no effect, 100 complete control); for pest or weed control at 500 g/ha: 500 g ai/ha
Summary of the method: as §1

[10] = tested on: ragweed (common ragweed, Ambrosia elatior); experiment: Test A preemergence; conditions: Ambrosia artemisiifolia, pre-emergence, 240 h; for pest or weed control at 125 g/ha: 125 g ai/ha; for pest or weed control at 500 g/ha: 500 g ai/ha
Summary of the method: as §1

[11] = tested on: pigweed (Amaranthus retroflexus); experiment: Test A preemergence; conditions: Amaranthus retroflexus, pre-emergence, 240 h; for pest or weed control at 125 g/ha: 125 g ai/ha; for pest or weed control at 500 g/ha: 500 g ai/ha
[12] = tested on: ryegrass, Italian (Italian ryegrass, Lolium multiflorum); experiment: Test A preemergence; conditions: Lolium multiflorum, pre-emergence, 240 h; for pest or weed control at 125 g/ha: 125 g ai/ha; for pest or weed control at 500 g/ha: 500 g ai/ha
Summary of the method: as §1

Kochia (Kochia scoparia) [13] = experiment: Test A preemergence; conditions: Bassia scoparia, pre-emergence, 240 h; for pest or weed control at 125 g/ha: 125 g ai/ha; for pest or weed control at 500 g/ha: 500 g ai/ha
Summary of the method: as §1

[14] = tested on: barnyardgrass (Echinochloa crus-galli); experiment: Test A preemergence; conditions: Echinochloa crus-galli, pre-emergence, 240 h; for pest or weed control at 125 g/ha: 125 g ai/ha; for pest or weed control at 500 g/ha: 500 g ai/ha
Summary of the method: as §1

[15] = approx. 10 d, read-out: Galium plant response rating
[16] = approx. 10 d, read-out: Corn plant response rating
[17] = approx. 10 d, read-out: Foxtail, Giant plant response rating
[18] = approx. 10 d, read-out: Blackgrass plant response rating
[19] = approx. 10 d, read-out: Kochia plant response rating
[20] = approx. 10 d, read-out: Barnyardgrass plant response rating
[21] = 500 g ai/ha, 0 to 100 scale, 0 is no effect, 100 is complete control

Cc1cc([C@H]2CNC(=O)[C@@H]2C(=O)Nc2ccccc2F)ccc1C(F)(F)F [Compound 1042]
pest or weed control at 125 g/ha [1]: 0%
pest or weed control at 125 g/ha [2, 15]: 30%
pest or weed control at 500 g/ha ([2]; visual injury, 0 to 100 scale (0 no effect, 100 complete control), approx. 10 d, read-out: Plant response rating, Galium): 50%
pest or weed control at 125 g/ha [3]: 20%
pest or weed control at 125 g/ha [4]: 30%
plant injury at 125 g/ha (corn (Zea mays); [16]): 60%
Corn plant response rating (crop injury, 0 = no effect, 100 = complete kill) at 500 g/ha (corn (Zea mays); 500 g ai/ha, visual injury, 0 to 100 scale (0 no effect, 100 complete control), approx. 10 d): 70%
pest or weed control at 125 g/ha [5, 17]: 80%
pest or weed control at 500 g/ha ([5]; visual injury, 0 to 100 scale (0 no effect, 100 complete control), approx. 10 d, read-out: Plant response rating, Foxtail, Giant): 90%
pest or weed control at 125 g/ha [6, 18]: 40%
pest or weed control at 500 g/ha ([6]; visual injury, 0 to 100 scale (0 no effect, 100 complete control), approx. 10 d, read-out: Plant response rating, Blackgrass): 70%
plant injury at 125 g/ha [7]: 0%
pest or weed control at 125 g/ha (Kochia (Kochia scoparia) [8]; [19]): 30%
pest or weed control at 500 g/ha (Kochia (Kochia scoparia) [8]; visual injury, 0 to 100 scale (0 no effect, 100 complete control), approx. 10 d, read-out: Plant response rating, Kochia): 60%
pest or weed control at 125 g/ha [9, 20]: 80%
pest or weed control at 500 g/ha ([9]; visual injury, 0 to 100 scale (0 no effect, 100 complete control), approx. 10 d, read-out: Plant response rating, Barnyardgrass): 90%
pest or weed control at 125 g/ha ([10]; Preemergence, visual injury rating after approximately 10 d, read-out: Ragweed plant response rating (0 to 100 scale, 0 is no effect, 100 is complete control)): 20%
pest or weed control at 500 g/ha ([10]; preemergence, visual injury rating about 10 d after treatment, 0 to 100 scale (0 no effect, 100 complete control), read-out: Ragweed plant response rating): 40%
pest or weed control at 125 g/ha ([11]; Preemergence, visual injury rating after approximately 10 d, read-out: Pigweed plant response rating (0 to 100 scale, 0 is no effect, 100 is complete control)): 30%
pest or weed control at 500 g/ha ([11]; preemergence, visual injury rating about 10 d after treatment, 0 to 100 scale (0 no effect, 100 complete control), read-out: Pigweed plant response rating): 50%
pest or weed control at 125 g/ha ([12]; Preemergence, visual injury rating after approximately 10 d, read-out: Ryegrass, Italian plant response rating (0 to 100 scale, 0 is no effect, 100 is complete control)): 30%
pest or weed control at 500 g/ha ([12]; preemergence, visual injury rating about 10 d after treatment, 0 to 100 scale (0 no effect, 100 complete control), read-out: Ryegrass, Italian plant response rating): 50%
pest or weed control at 125 g/ha (Kochia (Kochia scoparia) [13]; Preemergence, visual injury rating after approximately 10 d, read-out: Kochia plant response rating (0 to 100 scale, 0 is no effect, 100 is complete control)): 20%
pest or weed control at 500 g/ha (Kochia (Kochia scoparia) [13]; preemergence, visual injury rating about 10 d after treatment, 0 to 100 scale (0 no effect, 100 complete control), read-out: Kochia plant response rating): 70%
pest or weed control at 125 g/ha ([14]; Preemergence, visual injury rating after approximately 10 d, read-out: Barnyardgrass plant response rating (0 to 100 scale, 0 is no effect, 100 is complete control)): 90%
pest or weed control at 500 g/ha ([14]; preemergence, visual injury rating about 10 d after treatment, 0 to 100 scale (0 no effect, 100 complete control), read-out: Barnyardgrass plant response rating): 90%

CN1C[C@H](c2ccc3c(c2)OCO3)[C@@H](C(=O)Nc2cccc(F)c2F)C1=O [Compound 1126]
pest or weed control at 125 g/ha [1]: 40%
pest or weed control at 500 g/ha [1, 21]: 40%
pest or weed control at 125 g/ha [2, 15]: 50%
pest or weed control at 500 g/ha ([2]; 0 to 100 scale, 0 is no effect, 100 is complete control, read-out: Galium plant response rating): 40%
pest or weed control at 125 g/ha [3]: 0%
pest or weed control at 500 g/ha [3, 21]: 30%
pest or weed control at 125 g/ha [4]: 30%
pest or weed control at 500 g/ha [4, 21]: 50%
plant injury at 125 g/ha (corn (Zea mays); [16]): 60%
plant injury at 500 g/ha (corn (Zea mays); 500 g ai/ha, 0 to 100 scale, 0 is no effect, 100 is complete control, read-out: Corn plant response rating): 90%
pest or weed control at 125 g/ha [5, 17]: 80%
pest or weed control at 500 g/ha ([5]; 0 to 100 scale, 0 is no effect, 100 is complete control, read-out: Foxtail, Giant plant response rating): 90%
pest or weed control at 125 g/ha [6, 18]: 20%
pest or weed control at 500 g/ha ([6]; 0 to 100 scale, 0 is no effect, 100 is complete control, read-out: Blackgrass plant response rating): 40%
plant injury at 125 g/ha [7]: 50%
plant injury at 500 g/ha [7, 21]: 70%
pest or weed control at 125 g/ha (Kochia (Kochia scoparia) [8]; [19]): 50%
pest or weed control at 500 g/ha (Kochia (Kochia scoparia) [8]; 0 to 100 scale, 0 is no effect, 100 is complete control, read-out: Kochia plant response rating): 70%
pest or weed control at 125 g/ha [9, 20]: 90%
pest or weed control at 500 g/ha ([9]; 0 to 100 scale, 0 is no effect, 100 is complete control, read-out: Barnyardgrass plant response rating): 90%
pest or weed control at 125 g/ha ([10]; preemergence, 0 to 100 scale where 0 is no effect and 100 is complete control, approx. 10 d, read-out: Ragweed plant response rating): 60%
pest or weed control at 500 g/ha ([10]; preemergence, 0 to 100 scale where 0 is no effect and 100 is complete control, read-out: Ragweed plant response rating): 50%
pest or weed control at 125 g/ha ([11]; preemergence, 0 to 100 scale where 0 is no effect and 100 is complete control, approx. 10 d, read-out: Pigweed plant response rating): 30%
pest or weed control at 500 g/ha ([11]; preemergence, 0 to 100 scale where 0 is no effect and 100 is complete control, read-out: Pigweed plant response rating): 60%
pest or weed control at 125 g/ha ([12]; preemergence, 0 to 100 scale where 0 is no effect and 100 is complete control, approx. 10 d, read-out: Ryegrass, Italian plant response rating): 0%
pest or weed control at 500 g/ha ([12]; preemergence, 0 to 100 scale where 0 is no effect and 100 is complete control, read-out: Ryegrass, Italian plant response rating): 70%
pest or weed control at 125 g/ha (Kochia (Kochia scoparia) [13]; preemergence, 0 to 100 scale where 0 is no effect and 100 is complete control, approx. 10 d, read-out: Kochia plant response rating): 70%
pest or weed control at 500 g/ha (Kochia (Kochia scoparia) [13]; preemergence, 0 to 100 scale where 0 is no effect and 100 is complete control, read-out: Kochia plant response rating): 80%
pest or weed control at 125 g/ha ([14]; preemergence, 0 to 100 scale where 0 is no effect and 100 is complete control, approx. 10 d, read-out: Barnyardgrass plant response rating): 90%
pest or weed control at 500 g/ha ([14]; preemergence, 0 to 100 scale where 0 is no effect and 100 is complete control, read-out: Barnyardgrass plant response rating): 90%
